From patent publication US20260070945A1, “MACROCYCLIC IMMUNOMODULATORS” (Bristol-Myers Squibb Company, priority 2022, published 2026)
Where a SMILES comes first, the peptide text is derived from it. Bridges are numbered along the chain shown (N, C = ends). [ ]: non-standard residue; d: D form. The star is where a group is joined. Phe(4-COOH) = N[C@@H](Cc1ccc(C(=O)O)cc1)C(=O)O; Bip = N[C@@H](Cc1ccc(-c2ccccc2)cc1)C(=O)O; Phe(3-Me) = Cc1cccc(C[C@H](N)C(=O)O)c1; mTyr = N[C@@H](Cc1cccc(O)c1)C(=O)O; dAla(cPr) = N[C@H](CC1CC1)C(=O)O; Cha = N[C@@H](CC1CCCCC1)C(=O)O; dCba = N[C@H](CC1CCC1)C(=O)O; Carboxymethyl = O=C(O)C*; NMeA = CN[C@@H](C)C(=O)O; Orn = NCCC[C@H](N)C(=O)O; Aun = NCCCCCCCCCCC(=O)O; Dab = NCC[C@H](N)C(=O)O; Dap = NC[C@H](N)C(=O)O; AEEA = NCCOCCOCC(=O)O; Ac3c = NC1(C(=O)O)CC1

biological target: T1, PD-1/PD-L1 interaction (PE-labeled human PD-L1-Ig binding to Jurkat cell line over-expressing human PD-1) (Homo sapiens, UniProt Q15116); test: Jurkat-PD-1 Cell Binding High-Content Screening Assay (CBA); details: Jurkat-hPD-1 cells, PE-labeled PD-L1-Ig 20 nM final; read-out: Jurkat HPD1 PDL1 IC50
T1 construct: expressed in transfected cells; host or cells: Jurkat
Procedure, shortened: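 Binding of 20 nM (final) PE-tagged PD-L1-Ig to compound-pretreated Jurkat-hPD-1 cells was measured by high-content imaging after 1 h. Pretreatment ran 2 h at 37 °C in DMEM with 10% fetal calf serum.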

T1 sequence (Q15116 25-288): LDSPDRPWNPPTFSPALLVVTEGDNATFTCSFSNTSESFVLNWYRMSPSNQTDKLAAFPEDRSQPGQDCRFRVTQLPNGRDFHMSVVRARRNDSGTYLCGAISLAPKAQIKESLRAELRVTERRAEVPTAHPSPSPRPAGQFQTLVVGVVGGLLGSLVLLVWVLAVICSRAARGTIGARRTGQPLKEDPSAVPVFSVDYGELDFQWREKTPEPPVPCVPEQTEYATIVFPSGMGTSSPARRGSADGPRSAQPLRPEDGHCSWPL

Row | Structure (SMILES) | IC50
1 | CC(C)C[C@@H]1NC(=O)[C@H](Cc2c[nH]c3ccccc23)NC(=O)[C@H](CC(=O)O)NC(=O)[C@H](Cc2ccc(C(=O)O)cc2)NC(=O)[C@H](Cc2ccc(OCC(=O)O)cc2)NC(=O)CSC[C@@H](C(=O)N[C@@H](CCCN)C(=O)NCCOCCOCC(=O)NCCCCCCCCCCC(=O)O)NC(=O)[C@H](CO)NC(=O)[C@H](C(C)C)NC(=O)[C@H](CC2CCCCC2)NC(=O)[C@H](CCN)NC(=O)[C@@H](CC2CC2)NC(=O)[C@H](C)N(C)C(=O)[C@H](C(C)C)NC(=O)[C@H](Cc2ccc(-c3ccccc3)cc2)NC1=O [Example 1248] ({CH2CO}-Y(Carboxymethyl)[Phe(4-COOH)]DWL[Bip]V[NMeA][dAla(cPr)][Dab][Cha]VSC[Orn][AEEA][Aun]-OH; thioether N-14) | 18 nM
2 | CC(C)C[C@@H]1NC(=O)[C@H](Cc2c[nH]c3ccccc23)NC(=O)[C@H](CC(=O)O)NC(=O)[C@H](Cc2ccc(C(=O)O)cc2)NC(=O)[C@H](Cc2ccc(OCC(=O)O)cc2)NC(=O)CSC[C@@H](C(=O)N[C@@H](CCCN)C(=O)NCCOCCOCC(=O)NCCCCCCCCCCC(=O)O)NC(=O)[C@H](CO)NC(=O)[C@H](C(C)C)NC(=O)[C@H](CC2CCCCC2)NC(=O)[C@H](CCN)NC(=O)[C@@H](CC2CCC2)NC(=O)[C@H](C)N(C)C(=O)[C@H](C(C)C)NC(=O)[C@H](Cc2ccc(-c3ccccc3)cc2)NC1=O [Example 1249] ({CH2CO}-Y(Carboxymethyl)[Phe(4-COOH)]DWL[Bip]V[NMeA][dCba][Dab][Cha]VSC[Orn][AEEA][Aun]-OH; thioether N-14) | 29.5 nM
3 | Cc1cccc(C[C@@H]2NC(=O)[C@H](CC(=O)O)NC(=O)[C@H](Cc3ccc(OCC(=O)O)cc3)NC(=O)[C@H](CN)NC(=O)CSC[C@@H](C(=O)NC3(C(=O)NCCOCCOCC(=O)NCCCCCCCCCCC(=O)O)CC3)NC(=O)[C@H](CCCN)NC(=O)[C@H](C(C)C)NC(=O)[C@H](CC3CCCCC3)NC(=O)[C@H](CCN)NC(=O)[C@@H](CC(C)C)NC(=O)[C@H](C)N(C)C(=O)[C@H](Cc3ccc(O)cc3)NC(=O)[C@H](Cc3ccc(-c4ccccc4)cc3)NC(=O)[C@H](Cc3ccc(O)cc3)NC2=O)c1 [Example 1252] ({CH2CO}-[Dap]Y(Carboxymethyl)D[Phe(3-Me)]Y[Bip]Y[NMeA][dL][Dab][Cha]V[Orn]C[Ac3c][AEEA][Aun]-OH; thioether N-14) | 22.8 nM
4 | Cc1cccc(C[C@@H]2NC(=O)[C@H](CC(=O)O)NC(=O)[C@H](Cc3ccc(OCC(=O)O)cc3)NC(=O)[C@H](Cc3ccc(OCC(=O)O)cc3)NC(=O)CSC[C@@H](C(=O)NC3(C(=O)NCCOCCOCC(=O)NCCCCCCCCCCC(=O)O)CC3)NC(=O)[C@H](CCCNC(=N)N)NC(=O)[C@H](C(C)C)NC(=O)[C@H](CC3CCCCC3)NC(=O)[C@H](CCN)NC(=O)[C@@H](CC(C)C)NC(=O)[C@H](C)N(C)C(=O)[C@H](Cc3ccc(O)cc3)NC(=O)[C@H](Cc3ccc(-c4ccccc4)cc3)NC(=O)[C@H](Cc3ccc(O)cc3)NC2=O)c1 [Example 1253] ({CH2CO}-Y(Carboxymethyl)Y(Carboxymethyl)D[Phe(3-Me)]Y[Bip]Y[NMeA][dL][Dab][Cha]VRC[Ac3c][AEEA][Aun]-OH; thioether N-14) | 16.6 nM
5 | Cc1cccc(C[C@@H]2NC(=O)[C@H](CC(=O)O)NC(=O)[C@H](Cc3ccc(OCC(=O)O)cc3)NC(=O)[C@H](CN)NC(=O)CSC[C@@H](C(=O)N[C@@H](CCN)C(=O)NCCCCCCCCCCC(=O)O)NC(=O)[C@H](CCCN)NC(=O)[C@H](C(C)C)NC(=O)[C@H](CC(C)C)NC(=O)[C@H](CCN)NC(=O)[C@@H](CC(C)C)NC(=O)[C@H](C)N(C)C(=O)[C@H](Cc3ccc(O)cc3)NC(=O)[C@H](Cc3ccc(-c4ccccc4)cc3)NC(=O)[C@H](Cc3ccc(O)cc3)NC2=O)c1 [Example 1255] ({CH2CO}-[Dap]Y(Carboxymethyl)D[Phe(3-Me)]Y[Bip]Y[NMeA][dL][Dab]LV[Orn]C[Dab][Aun]-OH; thioether N-14) | 206 nM
6 | CC(C)[C@@H]1NC(=O)[C@H](CC2CCCCC2)NC(=O)[C@H](CCN)NC(=O)[C@@H](C)NC(=O)[C@H](C)N(C)C(=O)[C@H](Cc2ccc(O)cc2)NC(=O)[C@H](Cc2ccc(-c3ccccc3)cc2)NC(=O)[C@H](Cc2ccc(O)cc2)NC(=O)[C@H](Cc2cccc(O)c2)NC(=O)[C@H](CC(=O)O)NC(=O)[C@H](Cc2ccc(OCC(=O)O)cc2)NC(=O)[C@H](CN)NC(=O)CSC[C@@H](C(=O)N[C@@H](CCN)C(=O)NCCCCCCCCCCC(=O)O)NC(=O)[C@H](CCCN)NC1=O [Example 1256] ({CH2CO}-[Dap]Y(Carboxymethyl)D[mTyr]Y[Bip]Y[NMeA][dA][Dab][Cha]V[Orn]C[Dab][Aun]-OH; thioether N-14) | 502 nM
7 | CC(C)C[C@H]1NC(=O)[C@H](C)N(C)C(=O)[C@H](Cc2ccc(O)cc2)NC(=O)[C@H](Cc2ccc(-c3ccccc3)cc2)NC(=O)[C@H](Cc2ccc(O)cc2)NC(=O)[C@H](Cc2cccc(O)c2)NC(=O)[C@H](CC(=O)O)NC(=O)[C@H](Cc2ccc(OCC(=O)O)cc2)NC(=O)[C@H](CN)NC(=O)CSC[C@@H](C(=O)N[C@@H](CCN)C(=O)NCCCCCCCCCCC(=O)O)NC(=O)[C@H](CCCN)NC(=O)[C@H](C(C)C)NC(=O)[C@H](CC2CCCCC2)NC(=O)[C@H](CCN)NC1=O [Example 1257] ({CH2CO}-[Dap]Y(Carboxymethyl)D[mTyr]Y[Bip]Y[NMeA][dL][Dab][Cha]V[Orn]C[Dab][Aun]-OH; thioether N-14) | 226 nM
8 | Cc1cccc(C[C@@H]2NC(=O)[C@H](CC(=O)O)NC(=O)[C@H](Cc3ccc(OCC(=O)O)cc3)NC(=O)[C@H](CN)NC(=O)CSC[C@@H](C(=O)N[C@@H](CCN)C(=O)NCCCCCCCCCCC(=O)O)NC(=O)[C@H]([C@@H](C)O)NC(=O)[C@H](C(C)C)NC(=O)[C@H](CC3CCCCC3)NC(=O)[C@H](CCN)NC(=O)[C@@H](CC(C)C)NC(=O)[C@H](C)N(C)C(=O)[C@H](Cc3ccc(O)cc3)NC(=O)[C@H](Cc3ccc(-c4ccccc4)cc3)NC(=O)[C@H](Cc3ccc(OCC(=O)O)cc3)NC2=O)c1 [Example 1258] ({CH2CO}-[Dap]Y(Carboxymethyl)D[Phe(3-Me)]Y(Carboxymethyl)[Bip]Y[NMeA][dL][Dab][Cha]VTC[Dab][Aun]-OH; thioether N-14) | 19 nM

Now those with a lower IC50, led by results:

Row | IC50 | Structure (SMILES)
9 | 14.9 nM | Cc1cccc(C[C@@H]2NC(=O)[C@H](CC(=O)O)NC(=O)[C@H](Cc3ccc(OCC(=O)O)cc3)NC(=O)[C@H](CN)NC(=O)CSC[C@@H](C(=O)N[C@@H](CCN)C(=O)NCCCCCCCCCCC(=O)O)NC(=O)[C@H](CO)NC(=O)[C@H](C(C)C)NC(=O)[C@H](CC3CCCCC3)NC(=O)[C@H](CCN)NC(=O)[C@@H](CC(C)C)NC(=O)[C@H](C)N(C)C(=O)[C@H](Cc3ccc(O)cc3)NC(=O)[C@H](Cc3ccc(-c4ccccc4)cc3)NC(=O)[C@H](Cc3ccc(OCC(=O)O)cc3)NC2=O)c1 [Example 1259] ({CH2CO}-[Dap]Y(Carboxymethyl)D[Phe(3-Me)]Y(Carboxymethyl)[Bip]Y[NMeA][dL][Dab][Cha]VSC[Dab][Aun]-OH; thioether N-14)
10 | 12.5 nM | Cc1cccc(C[C@@H]2NC(=O)[C@H](CC(=O)O)NC(=O)[C@H](Cc3ccc(OCC(=O)O)cc3)NC(=O)[C@H](Cc3ccc(OCC(=O)O)cc3)NC(=O)CSC[C@@H](C(=O)N[C@@H](CCN)C(=O)NCCCCCCCCCCC(=O)O)NC(=O)[C@H](CCCN)NC(=O)[C@H](C(C)C)NC(=O)[C@H](CC3CCCCC3)NC(=O)[C@H](CCN)NC(=O)[C@@H](CC(C)C)NC(=O)[C@H](C)N(C)C(=O)[C@H](Cc3ccc(O)cc3)NC(=O)[C@H](Cc3ccc(-c4ccccc4)cc3)NC(=O)[C@H](C(C)C)NC2=O)c1 [Example 1254] ({CH2CO}-Y(Carboxymethyl)Y(Carboxymethyl)D[Phe(3-Me)]V[Bip]Y[NMeA][dL][Dab][Cha]V[Orn]C[Dab][Aun]-OH; thioether N-14)
11 | 11.8 nM | Cc1cccc(C[C@@H]2NC(=O)[C@H](CC(=O)O)NC(=O)[C@H](Cc3ccc(OCC(=O)O)cc3)NC(=O)[C@H](Cc3ccc(OCC(=O)O)cc3)NC(=O)CSC[C@@H](C(=O)NC3(C(=O)NCCOCCOCC(=O)NCCCCCCCCCCC(=O)O)CC3)NC(=O)[C@H](CCCN)NC(=O)[C@H](C(C)C)NC(=O)[C@H](CC3CCCCC3)NC(=O)[C@H](CCN)NC(=O)[C@@H](CC(C)C)NC(=O)[C@H](C)N(C)C(=O)[C@H](Cc3ccc(O)cc3)NC(=O)[C@H](Cc3ccc(-c4ccccc4)cc3)NC(=O)[C@H](CC(C)C)NC2=O)c1 [Example 1251] ({CH2CO}-Y(Carboxymethyl)Y(Carboxymethyl)D[Phe(3-Me)]L[Bip]Y[NMeA][dL][Dab][Cha]V[Orn]C[Ac3c][AEEA][Aun]-OH; thioether N-14)
12 | 10.4 nM | Cc1cccc(C[C@@H]2NC(=O)[C@H](CC(=O)O)NC(=O)[C@H](Cc3ccc(OCC(=O)O)cc3)NC(=O)[C@H](CN)NC(=O)CSC[C@@H](C(=O)N[C@@H](CCN)C(=O)NCCCCCCCCCCC(=O)O)NC(=O)[C@H]([C@@H](C)O)NC(=O)[C@H](C(C)C)NC(=O)[C@H](CC3CCCCC3)NC(=O)[C@H](CCN)NC(=O)[C@@H](CC(C)C)NC(=O)[C@H](C)N(C)C(=O)[C@H](Cc3ccc(OCC(=O)O)cc3)NC(=O)[C@H](Cc3ccc(-c4ccccc4)cc3)NC(=O)[C@H](C(C)C)NC2=O)c1 [Example 1260] ({CH2CO}-[Dap]Y(Carboxymethyl)D[Phe(3-Me)]V[Bip]Y(Carboxymethyl)[NMeA][dL][Dab][Cha]VTC[Dab][Aun]-OH; thioether N-14)
13 | 2.8 nM | Cc1cccc(C[C@@H]2NC(=O)[C@H](CC(=O)O)NC(=O)[C@H](Cc3ccc(OCC(=O)O)cc3)NC(=O)[C@H](Cc3ccc(OCC(=O)O)cc3)NC(=O)CSC[C@@H](C(=O)NC3(C(=O)NCCOCCOCC(=O)NCCCCCCCCCCC(=O)O)CC3)NC(=O)[C@H](CCCNC(=N)N)NC(=O)[C@H](C(C)C)NC(=O)[C@H](CC3CCCCC3)NC(=O)[C@H](CCN)NC(=O)[C@@H](CC(C)C)NC(=O)[C@H](C)N(C)C(=O)[C@H](C(C)C)NC(=O)[C@H](Cc3ccc(-c4ccccc4)cc3)NC(=O)[C@H](CC(C)C)NC2=O)c1 [Example 1250] ({CH2CO}-Y(Carboxymethyl)Y(Carboxymethyl)D[Phe(3-Me)]L[Bip]V[NMeA][dL][Dab][Cha]VRC[Ac3c][AEEA][Aun]-OH; thioether N-14)
